{"source": "patent US10363268B2", "about": "“Proton-binding polymers for oral administration” (Tricida, Inc., priority 2013, dated 2019)", "origin": "cited, not measured here", "system": "adult patients with CKD"}
{"smiles": "O=C([O-])O.[Na+]", "note": "[sodium bicarbonate, Sodium bicarbonate]", "values": [{"measurement": "patients experiencing rapid progression (rapid decline of CrCl >3 ml/min per 1.73 m^2/yr)", "setting": "CKD patients, 2 years", "value": 9, "unit": "%"}, {"measurement": "patients who developed ESRD", "setting": "CKD patients, 2 years, ESRD = CrCl<10 ml/min", "value": 6.5, "unit": "%"}, {"measurement": "decline in CrCl", "setting": "CKD patients, oral sodium bicarbonate for 2 years, average dose 1.82 g/day", "value": 1.88, "unit": "ml/min per 1.73 m^2"}, {"measurement": "relative risk of ESRD", "setting": "versus control group", "value": 0.13}, {"measurement": "relative risk of rapid progression", "setting": "versus control group", "value": 0.15}]}
